From patent publication US9044463B2, “FSH receptor antagonists” (Merck Sharp & Dohme B.V., priority 2011, dated 2015) come the findings set out here.

For orientation: IC50 means the concentration that gives 50% inhibition.

The target of the assay is T1, human FSH receptor (Homo sapiens, UniProt P23945).
T1 construct: expressed in transfected cells; host or cells: CHO (Chinese Hamster Ovary) cells, stably transfected; cotransfected with a CRE-luciferase reporter
T1 sequence (P23945 18-695): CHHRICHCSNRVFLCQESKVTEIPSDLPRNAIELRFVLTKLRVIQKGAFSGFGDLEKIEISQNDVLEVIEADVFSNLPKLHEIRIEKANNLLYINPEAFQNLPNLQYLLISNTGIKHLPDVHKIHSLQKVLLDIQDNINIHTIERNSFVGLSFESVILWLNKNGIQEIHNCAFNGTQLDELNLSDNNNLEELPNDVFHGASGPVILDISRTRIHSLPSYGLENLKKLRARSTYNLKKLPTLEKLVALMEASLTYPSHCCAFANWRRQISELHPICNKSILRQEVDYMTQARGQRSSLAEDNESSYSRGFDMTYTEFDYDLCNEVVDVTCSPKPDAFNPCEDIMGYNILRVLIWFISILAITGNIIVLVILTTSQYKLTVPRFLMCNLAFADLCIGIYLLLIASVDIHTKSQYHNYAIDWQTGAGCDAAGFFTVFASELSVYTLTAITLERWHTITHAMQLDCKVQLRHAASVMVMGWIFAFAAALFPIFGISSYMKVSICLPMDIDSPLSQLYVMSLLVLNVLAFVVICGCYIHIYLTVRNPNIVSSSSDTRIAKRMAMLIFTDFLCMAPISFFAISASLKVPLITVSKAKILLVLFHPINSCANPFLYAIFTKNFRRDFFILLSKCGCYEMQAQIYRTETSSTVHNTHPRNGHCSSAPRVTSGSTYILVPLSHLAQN
In words: Antagonistic activity at the human FSH receptor expressed in CHO cells (CRE-luciferase reporter). Conditions: CHO cells stably transfected with human FSH receptor and CRE-luciferase; with 49 μM recFSH; 4 hours incubation; read-out: IC50 (inhibition of recFSH-induced luciferase stimulation). The format is cell-based. The protocol:
Antagonistic Activity of Compounds at the Human FSH Receptor Expressed in CHO Cells
Antagonistic activity of the compounds at the human FSH receptor was determined in Chinese Hamster Ovary (CHO) cells stably transfected with the human FSH receptor and cotransfected to with a cAMP responsive element (CRE)/promoter directing the expression of a firefly luciferase reporter gene. Binding of the compounds to the Gs protein-coupled FSH receptor will result in an increase of cAMP, which in turn will induce an increased transactivation of the luciferase reporter. The cells (7,500 cells/well of a 384 well plate) were incubated in Dulbecco′ minimal essential F12 modified medium (Invitrogen), supplemented with 1 μg/ml bovine insulin, 5 μg/ml human apo-transferrin, 100 U/ml penicillin G and 100 μg/ml streptomycin with the test compounds (concentration between 0.316 nM and 10.0 μM) in duplicate together with […] recFSH (which, at this concentration in the absence of test compound, induces 80% of the maximal luciferase stimulation) in a humidified atmosphere (95%) at 5-7% CO2 and 37° C. The final concentration of DMSO was 1%. After 4 hours of incubation, plates were allowed to adjust to room temperature for 1 hour. Then, SteadyLite (PerkinElmer) solution was added to the wells and cells were allowed to lyse for at least 1 hour at room temperature. Subsequently, luciferase activity was measured in a luminescence counter. The signal is expressed as counts per second (cps). The IC50 (concentration of test compound causing half-maximal (50%) inhibition of the maximally attainable inhibition of the luciferase stimulation by the compound) and efficacy of the compounds were determined using the software program MathIQ (version 2.3, ID Business Solutions Limited).
(In general: Reporter assays use an easily measured gene product as a stand-in for the process of interest.)
For the compound `COc1cc2c(c(OC)c1OC)CCc1cc(-c3ccccc3)c(C(=O)N[C@@H](CO)Cc3c[nH]c4ccccc34)cc1-2` [Example 1, (R)—N-(1-hydroxy-3-(1H-indol-3-yl)propan-2-yl)-6,7,8-trimethoxy-2-phenyl-9,10-dihydrophenanthrene-3-carboxamide], the IC50 is less than 100 nM. In the case of `COc1cc2c(c(OC)c1OC)CCc1cc(-c3ccccc3F)c(C(=O)N[C@@H](CO)Cc3c[nH]c4ccccc34)cc1-2` [Example 2, 2-(2-fluorophenyl)-N—((R)-1-hydroxy-3-(1H-indol-3-yl)propan-2-yl)-6,7,8-trimethoxy-9,10-dihydrophenanthrene-3-carboxamide] it was less than 100 nM; in that of `COc1cc2c(c(OC)c1OC)CCc1cc(-c3cccc(F)c3F)c(C(=O)N[C@@H](CO)Cc3c[nH]c4ccccc34)cc1-2` [Example 3, 2-(2,3-difluorophenyl)-N—((R)-1-hydroxy-3-(1H-indol-3-yl)propan-2-yl)-6,7,8-trimethoxy-9,10-dihydrophenanthrene-3-carboxamide], less than 100 nM. Under `COc1cc2c(c(OC)c1OC)CCc1cc(-c3cccs3)c(C(=O)N[C@@H](CO)Cc3c[nH]c4ccccc34)cc1-2` [Example 4, (R)—N-(1-hydroxy-3-(1H-indol-3-yl)propan-2-yl)-6,7,8-trimethoxy-2-(thiophen-2-v)-9,10-dihydrophenanthrene-3-carboxamide] stands less than 100 nM; under `COc1cc2c(c(OC)c1OC)CCc1cc(-c3sccc3C)c(C(=O)N[C@@H](CO)Cc3c[nH]c4ccccc34)cc1-2` [Example 5, N—((R)-1-hydroxy-3-(1H-indol-3-yl)propan-2-yl)-6,7,8-trimethoxy-2-(3-methylthiophen-2-yl)-9,10-dihydrophenanthrene-3-carboxamide], less than 100 nM. In the case of `COc1cc2c(c(OC)c1OC)CCc1cc(-c3cccnc3OC)c(C(=O)N[C@@H](CO)Cc3c[nH]c4ccccc34)cc1-2` [Example 6, N—((R)-1-hydroxy-3-(1H-indol-3-yl)propan-2-yl)-6,7,8-trimethoxy-2-(2-methoxypyrdin-3-v)-9,10-dihydrophenanthrene-3-carboxamide] it was less than 100 nM; in that of `COc1cc2c(c(OC)c1OC)CCc1cc(OC(C)C)c(C(=O)N[C@@H](CO)Cc3c[nH]c4ccccc34)cc1-2` [Example 7, (R)—N-(1-hydroxy-3-(1H-indol-3-yl)propan-2-yl)-2-isopropoxy-6,7,8-trimethoxy-9,10-dihydrophenanthrene-3-carboxamide], less than 100 nM; in that of `COc1cc2c(cc1OC)-c1cc(C(=O)N[C@@H](CO)Cc3c[nH]c4ccccc34)c(OCC3CC3)cc1CC2` [Example 8, (R)-2-(cyclopropylmethoxy)-N-(1-hydroxy-3-(1H-indol-3-yl)propan-2-yl)-6,7-dimethoxy-9,10-dihydrophenanthrene-3-carboxamide], less than 100 nM.

For `COc1cc2c(cc1OC)-c1cc(C(=O)N[C@@H](CO)Cc3c[nH]c4ccccc34)c(OC3CCCC3)cc1CC2` [Example 9, (R)-2-(cyclopentyloxy)-N-(1-hydroxy-3-(1H-indol-3-yl)propan-2-yl)-6,7-dimethoxy-9,10-dihydrophenanthrene-3-carboxamide], the IC50 was less than 100 nM.

Turning to `CCCC(C)Oc1cc2c(cc1C(=O)N[C@@H](CO)Cc1c[nH]c3ccccc13)-c1cc(OC)c(OC)cc1CC2` (stereo partly drawn) [Example 10, N—((R)-1-hydroxy-3-(1H-indol-3-yl)propan-2-yl)-6,7-dimethoxy-2-(pentan-2-yloxy)-9,10-dihydrophenanthrene-3-carboxamide], the IC50 was less than 100 nM.

Regarding `COc1cc2c(cc1OC)-c1cc(C(=O)N[C@@H](CO)Cc3c[nH]c4ccccc34)c(OC(F)F)cc1CC2` [Example 11, (R)-2-(difluoromethoxy)-N-(1-hydroxy-3-(1H-indol-3-yl)propan-2-yl)-6,7-dimethoxy-9,10-dihydrophenanthrene-3-carboxamide], the IC50 is less than 100 nM. With `COc1cc2c(cc1OC)-c1cc(C(=O)N[C@@H](CO)Cc3c[nH]c4ccccc34)c(OC(C)C#N)cc1CC2` (stereo partly drawn) [Example 12, 2-(1-cyanoethoxy)-N—((R)-1-hydroxy-3-(1H-indol-3-yl)propan-2-yl)-6,7-dimethoxy-9,10-dihydrophenanthrene-3-carboxamide], the IC50 lay within 100 to 1000 nM.

Take `C=CCOc1cc2c(cc1C(=O)N[C@@H](CO)Cc1c[nH]c3ccccc13)-c1cc(OC)c(OC)cc1CC2` [Example 13, (R)-2-(allyloxy)-N-(1-hydroxy-3-(1H-indol-3-yl)propan-2-yl)-6,7-dimethoxy-9,10-dihydrophenanthrene-3-carboxamide]: the IC50 is 100 to 1000 nM. With `COc1cc2c(cc1OC)-c1cc(C(=O)N[C@@H](CO)Cc3c[nH]c4ccccc34)c(OC(F)C(N)=O)cc1CC2` (stereo partly drawn) [Example 14, 2-(2-amino-1-fluoro-2-oxoethoxy)-N—((R)-1-hydroxy-3-(1H-indol-3-yl)propan-2-yl)-6,7-dimethoxy-9,10-dihydrophenanthrene-3-carboxamide], the IC50 was 100 to 1000 nM. As for `COCCOc1cc2c(cc1C(=O)N[C@@H](CO)Cc1c[nH]c3ccccc13)-c1cc(OC)c(OC)cc1CC2` [Example 15, (R)—N-(1-hydroxy-3-(1H-indol-3-yl)propan-2-yl)-6,7-dimethoxy-2-(2-methoxyethoxy)-9,10-dihydrophenanthrene-3-carboxamide], the IC50 is 100 to 1000 nM. In the case of `COc1cc2c(cc1OC)-c1cc(C(=O)N[C@@H](CO)Cc3c[nH]c4ccccc34)c(-c3ccccc3F)cc1CC2` [Example 18, 2-(2-fluorophenyl)-N—((R)-1-hydroxy-3-(1H-indol-3-yl)propan-2-yl)-6,7-dimethoxy-9,10-dihydrophenanthrene-3-carboxamide] it was less than 100 nM. With `COc1cc2c(cc1OC)-c1cc(C(=O)N[C@@H](CO)Cc3c[nH]c4ccccc34)c(-c3c(F)cc(O)cc3F)cc1CC2` [Example 19, (R)-2-(2,6-difluoro-4-hydroxyphenyl)-N-(1-hydroxy-3-(1H-indol-3-yl)propan-2-yl)-6,7-dimethoxy-9,10-dihydrophenanthrene-3-carboxamide], the half-inhibitory concentration (IC50) was less than 100 nM. As to `COc1cc2c(cc1OC)-c1cc(C(=O)N[C@@H](CO)Cc3c[nH]c4ccccc34)c(-c3ccc(N)cc3F)cc1CC2` [Example 20, 2-(4-amino-2-fluorophenyl)-N—((R)-1-hydroxy-3-(1H-indol-3-yl)propan-2-yl)-6,7-dimethoxy-9,10-dihydrophenanthrene-3-carboxamide], the IC50 is less than 100 nM.

Take `COc1cc2c(cc1OC)-c1cc(C(=O)N[C@@H](CO)Cc3c[nH]c4ccccc34)c(-c3ccncc3F)cc1CC2` [Example 21, 2-(3-fluoropyridin-4-yl)-N—((R)-1-hydroxy-3-(1H-indol-3-yl)propan-2-yl)-6,7-dimethoxy-9,10-dihydrophenanthrene-3-carboxamide]: the IC50 is less than 100 nM.

Regarding `COc1cc2c(cc1OC)-c1cc(C(=O)N[C@@H](CO)Cc3c[nH]c4ccccc34)c(C(C)=C(C)C)cc1CC2` [Example 22, (R)—N-(1-hydroxy-3-(1H-indol-3-yl)propan-2-yl)-6,7-dimethoxy-2-(3-methylbut-2-en-2-yl)-9,10-dihydrophenanthrene-3-carboxamide], the IC50 was less than 100 nM. For `COc1cc2c(cc1OC)-c1cc(C(=O)N[C@@H](CO)Cc3c[nH]c4ccccc34)c(-c3ccc(Cl)s3)cc1CC2` [Example 23, (R)-2-(5-chlorothiophen-2-yl)-N-(1-hydroxy-3-(1H-indol-3-yl)propan-2-yl)-6,7-dimethoxy-9,10-dihydrophenanthrene-3-carboxamide], the IC50 was less than 100 nM. In the case of `COc1cc2c(cc1OC)-c1cc(C(=O)N[C@@H](CO)Cc3c[nH]c4ccccc34)c(-c3ccco3)cc1CC2` [Example 24, (R)-2-(furan-2-yl)-N-(1-hydroxy-3-(1H-indol-3-yl)propan-2-yl)-6,7-dimethoxy-9,10-dihydrophenanthrene-3-carboxamide] it was less than 100 nM.
